Experimental findings from ChEMBL document CHEMBL1201862, “PubChem BioAssay data set” (2004) are described below.

Each structure is given as a SMILES string. Activity calls are given as the source filed them. Cut-off read from the data, not from the text of the source, for most assays here: actives have a measured EC50 and inactives only a lower limit.

The target in assay [1] is ATP-dependent molecular chaperone HSP82 (Candida albicans (strain WO-1) (Yeast), UniProt C4YTQ8). Briefly: steroid-induced GRE reporter decrease in yeast – S. cerevisiae, luminescence, Hsp90 inhibitor project, dose response (AID 2400).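 Note: beta-galactosidase luminescence from glucocorticoid response element reporter as proxy for Hsp90 function; inhibitor potency where signal loss means Hsp90 inhibition.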 Type of assay: functional, cell-based.
Sequence of ATP-dependent molecular chaperone HSP82 (C4YTQ8 whole entry): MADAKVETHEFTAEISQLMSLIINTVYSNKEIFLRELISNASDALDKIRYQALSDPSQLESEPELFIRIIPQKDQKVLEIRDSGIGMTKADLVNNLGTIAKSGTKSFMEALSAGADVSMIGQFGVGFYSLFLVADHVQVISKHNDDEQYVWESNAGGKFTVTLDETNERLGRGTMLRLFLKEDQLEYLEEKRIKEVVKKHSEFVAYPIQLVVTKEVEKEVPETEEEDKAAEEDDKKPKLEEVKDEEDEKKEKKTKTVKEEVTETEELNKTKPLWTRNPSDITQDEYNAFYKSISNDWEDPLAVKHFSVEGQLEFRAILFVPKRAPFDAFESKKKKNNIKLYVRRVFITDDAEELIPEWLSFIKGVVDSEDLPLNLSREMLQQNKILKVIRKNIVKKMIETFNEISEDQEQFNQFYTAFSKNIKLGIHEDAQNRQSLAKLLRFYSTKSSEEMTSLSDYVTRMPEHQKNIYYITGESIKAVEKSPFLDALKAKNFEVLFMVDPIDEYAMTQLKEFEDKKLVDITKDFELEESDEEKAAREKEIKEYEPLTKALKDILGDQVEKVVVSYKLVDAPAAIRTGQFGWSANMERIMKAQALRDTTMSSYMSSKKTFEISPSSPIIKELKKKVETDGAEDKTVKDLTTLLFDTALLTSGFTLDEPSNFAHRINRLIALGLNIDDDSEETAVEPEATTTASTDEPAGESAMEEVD
Assay [2] is described as follows: NIH-3T3 fibroblast cytotoxicity, dose response, cytotoxicity control, cell-based, fluorescence, Alamar Blue, secondary assay (AID 2327).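 Note: NIH-3T3 mouse fibroblasts cultured with fluconazole at 8 µg/mL.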 The format is functional. For orientation: Alamar Blue is a resazurin reagent that responds to reducing activity.
Assay [3] in a line: fluconazole-exposed Candida albicans growth modulators – fluorescence, retest, confirmation (AID 2467). Type of assay: functional, cell-based.
For the next assay, the target named is T1, Cytochrome P450 1A2 (Homo sapiens, UniProt P05177).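 Note: PubChem cytochrome P450 panel assay, CYP1A2 panel member.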
T1 sequence (P05177 whole entry): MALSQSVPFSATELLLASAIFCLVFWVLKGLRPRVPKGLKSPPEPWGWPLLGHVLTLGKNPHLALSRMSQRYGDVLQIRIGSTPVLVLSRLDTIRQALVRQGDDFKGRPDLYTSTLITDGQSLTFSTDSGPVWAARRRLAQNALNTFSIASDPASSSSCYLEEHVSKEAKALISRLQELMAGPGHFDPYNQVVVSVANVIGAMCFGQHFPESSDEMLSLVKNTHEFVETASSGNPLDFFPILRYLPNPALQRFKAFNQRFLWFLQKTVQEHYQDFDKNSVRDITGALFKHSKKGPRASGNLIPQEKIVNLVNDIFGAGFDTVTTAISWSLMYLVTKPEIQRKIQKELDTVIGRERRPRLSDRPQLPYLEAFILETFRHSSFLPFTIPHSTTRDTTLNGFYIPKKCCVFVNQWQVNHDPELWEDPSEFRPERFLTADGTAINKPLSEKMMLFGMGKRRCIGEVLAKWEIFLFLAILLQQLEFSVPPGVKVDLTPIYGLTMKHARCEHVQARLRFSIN

Another assay concerns the target T2, Leucine aminopeptidase (Plasmodium falciparum 3D7, UniProt Q8IL11).
T2 sequence (Q8IL11 whole entry): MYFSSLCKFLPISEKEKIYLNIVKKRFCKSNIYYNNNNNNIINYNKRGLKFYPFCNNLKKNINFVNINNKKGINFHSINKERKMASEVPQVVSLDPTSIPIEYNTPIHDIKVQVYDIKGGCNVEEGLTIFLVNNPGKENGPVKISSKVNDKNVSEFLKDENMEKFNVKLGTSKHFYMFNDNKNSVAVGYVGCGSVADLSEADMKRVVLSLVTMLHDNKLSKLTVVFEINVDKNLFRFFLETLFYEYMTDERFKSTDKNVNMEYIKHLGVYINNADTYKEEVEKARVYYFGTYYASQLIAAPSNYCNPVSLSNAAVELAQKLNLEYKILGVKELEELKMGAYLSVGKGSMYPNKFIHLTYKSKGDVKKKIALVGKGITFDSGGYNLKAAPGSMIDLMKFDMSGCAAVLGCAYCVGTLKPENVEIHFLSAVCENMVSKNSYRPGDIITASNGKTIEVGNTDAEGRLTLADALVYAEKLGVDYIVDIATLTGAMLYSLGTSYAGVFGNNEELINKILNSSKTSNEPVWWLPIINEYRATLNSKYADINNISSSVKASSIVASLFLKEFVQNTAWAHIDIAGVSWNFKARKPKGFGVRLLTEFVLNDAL
The experiment in a line: P. falciparum M17LAP inhibitors, primary screen, biochemical, fluorogenic H-Leu-NHMec substrate, 1536-well (AID 1619). The format is functional.

For assay [4], the target named is T3, Serine/threonine-protein phosphatase (Candida dubliniensis (strain CD36 / CBS 7987 / NCPF 3949 / NRRLY-17841) (Yeast), UniProt B9W6M3).
T3 sequence (B9W6M3 whole entry): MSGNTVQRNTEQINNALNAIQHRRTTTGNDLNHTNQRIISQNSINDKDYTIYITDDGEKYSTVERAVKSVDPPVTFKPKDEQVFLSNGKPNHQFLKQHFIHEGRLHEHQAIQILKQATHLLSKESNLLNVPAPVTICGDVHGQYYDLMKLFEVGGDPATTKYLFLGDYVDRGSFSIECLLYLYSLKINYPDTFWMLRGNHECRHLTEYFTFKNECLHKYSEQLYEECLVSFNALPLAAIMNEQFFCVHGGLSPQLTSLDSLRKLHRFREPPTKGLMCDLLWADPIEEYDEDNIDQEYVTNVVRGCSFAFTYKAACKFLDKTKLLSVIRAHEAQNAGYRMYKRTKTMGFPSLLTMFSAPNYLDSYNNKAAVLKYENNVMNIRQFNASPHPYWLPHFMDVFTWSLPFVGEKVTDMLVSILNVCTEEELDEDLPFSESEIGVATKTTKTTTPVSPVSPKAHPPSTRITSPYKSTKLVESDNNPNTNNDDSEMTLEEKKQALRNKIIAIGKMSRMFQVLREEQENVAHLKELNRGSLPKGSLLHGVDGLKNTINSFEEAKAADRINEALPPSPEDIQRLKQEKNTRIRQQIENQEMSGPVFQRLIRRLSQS
The experiment in a line: blockers of CaCl2-induced CDRE-lacZ signaling – S. cerevisiae, luminescence, secondary, dose response (AID 2388).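 Note: yeast reporter cells carrying a calcineurin-responsive lacZ construct stimulated with calcium chloride; luminescent beta-galactosidase reporter signal in whole cells rather than isolated phosphatase activity; potency for inhibition where a drop in reporter signal means calcineurin blockade.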 Type of assay: functional, cell-based.

In another assay the test system is Streptococcus. The experiment in a line: GAS UMAA2166 growth inhibition – luminescence, BacTiterGlo, counter-screen for streptokinase expression inhibitor project, dose response (AID 1915).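 Note: potency for reduction of bacterial viability or growth.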 The format is functional, organism-based. A general note: Counterscreens check selectivity or assay interference.
In assay [5] the test system is Streptococcus sp. 'group A'. Briefly: Streptococcus pyogenes SK(-)GAS viability under kanamycin – luminescence, BacTiterGlo, confirmation, counter-screen for streptokinase expression inhibitor project, dose response (AID 1900). The format is functional, organism-based.
The target in assay [6] is T4, Calpain-2 catalytic subunit (Sus scrofa, UniProt P43367).
T4 sequence (P43367 whole entry): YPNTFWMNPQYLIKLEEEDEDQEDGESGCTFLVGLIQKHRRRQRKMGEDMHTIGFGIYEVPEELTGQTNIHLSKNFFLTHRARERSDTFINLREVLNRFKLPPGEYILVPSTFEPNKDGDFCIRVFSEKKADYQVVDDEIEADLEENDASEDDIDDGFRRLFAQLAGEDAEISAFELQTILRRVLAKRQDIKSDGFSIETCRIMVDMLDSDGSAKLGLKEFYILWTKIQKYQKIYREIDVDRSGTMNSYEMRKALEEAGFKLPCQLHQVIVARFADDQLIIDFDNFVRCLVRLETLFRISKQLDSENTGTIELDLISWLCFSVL
The experiment in a line: m-calpain protease blockers, concentration series – biochemical, fluorogenic peptide substrate, dose response (AID 1420). Type of assay: functional.

Assay [7] has as its target T5, Corticotropin-releasing factor receptor 2/Corticotropin-releasing factor-binding protein (Homo sapiens, UniProt P24387+Q13324).
T5 sequence (Q13324 whole entry): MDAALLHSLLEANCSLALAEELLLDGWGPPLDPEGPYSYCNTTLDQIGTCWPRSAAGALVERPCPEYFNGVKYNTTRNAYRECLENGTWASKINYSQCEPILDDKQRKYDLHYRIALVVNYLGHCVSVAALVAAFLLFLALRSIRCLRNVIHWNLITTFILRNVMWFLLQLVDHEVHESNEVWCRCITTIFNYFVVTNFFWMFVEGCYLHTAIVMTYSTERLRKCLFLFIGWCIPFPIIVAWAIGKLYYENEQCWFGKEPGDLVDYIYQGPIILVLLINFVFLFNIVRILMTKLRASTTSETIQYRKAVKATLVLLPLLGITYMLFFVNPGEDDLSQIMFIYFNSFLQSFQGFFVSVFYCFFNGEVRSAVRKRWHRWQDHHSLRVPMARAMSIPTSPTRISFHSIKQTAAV
T5 sequence (P24387 whole entry): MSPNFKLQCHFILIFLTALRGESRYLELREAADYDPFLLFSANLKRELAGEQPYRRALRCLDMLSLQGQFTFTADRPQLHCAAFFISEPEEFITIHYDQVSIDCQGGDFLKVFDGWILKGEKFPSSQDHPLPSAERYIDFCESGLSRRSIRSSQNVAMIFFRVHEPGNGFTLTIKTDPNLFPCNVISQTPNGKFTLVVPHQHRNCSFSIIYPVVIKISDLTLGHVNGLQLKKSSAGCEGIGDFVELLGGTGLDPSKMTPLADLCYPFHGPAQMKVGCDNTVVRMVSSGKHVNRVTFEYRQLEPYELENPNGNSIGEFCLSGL
Briefly: activators of CRF receptor 2 with binding protein – uHTS hits, confirmation (AID 602473). Type of assay: functional. The conditions noted are these: read-out: EC50_Mean.

Assay [8] can be described thus: blockers of CRF-binding protein–CRF-R2 complex – cell-based, uHTS hits, 384-well, dose response (AID 651639). The format is functional, Homo sapiens. The conditions noted are these: read-out: IC50_Mean.
Assay [9] concerns the target T5, Corticotropin-releasing factor receptor 2/Corticotropin-releasing factor-binding protein. The experiment in a line: Dose Response confirmation of uHTS hits for small molecule antagonists of the CRF-binding protein and CRF-R2 receptor complex. The format is functional. As to conditions: read-out: IC50_Mean.
Assay [10] has as its target T6, Polyadenylate-binding protein 1 (Homo sapiens, UniProt P11940). Briefly: MLLE binding blockers, Cy5 peptide tracer – biochemical, fluorescence polarization, Cy5-PAM2 peptide, secondary, miRNA deadenylation inhibitor project, dose response (AID 602260). The format is functional. The conditions noted are these: read-out: IC50_Mean.
Assay [11] deals with T6, Polyadenylate-binding protein 1. The experiment in a line: MLLE domain peptide-binding blockers, IC50 – biochemical, fluorescence polarization, FITC-PAM2 peptide, dose response (AID 602259). Type of assay: functional. As to conditions: read-out: IC50_Mean.
The next assay concerns the target Cytochrome P450 2D6 (Homo sapiens, UniProt P10635).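 Note: CYP2D6 member of a cytochrome P450 panel assay.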
The next assay has as its system INS1. Briefly: INS-1E survival protection against cytokine death – cell-based, luminescence, retest, dose response (AID 449756).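 Note: cell death triggered by IL-1 beta plus TNF-alpha plus IFN-gamma mixture; protective hits raise ATP signal compared with cytokine alone wells.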 Type of assay: functional. The conditions noted are these: Rattus norvegicus.
Assay [12] in a line: Trypanosoma cruzi growth suppression in host cells – NIH3T3 host cells, beta-gal luminescence, confirmation (AID 2044).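 Note: intracellular parasites grown in NIH/3T3 mouse fibroblasts as host cells; luminescent beta-galactosidase reporter signal from transgenic T. cruzi replicating inside host cells; inhibitors lower the luminescence signal.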 Type of assay: functional, cell-based.
The next assay deals with T7, Streptokinase A (Streptococcus pyogenes serotype M1, UniProt P10520).
T7 sequence (P10520 whole entry): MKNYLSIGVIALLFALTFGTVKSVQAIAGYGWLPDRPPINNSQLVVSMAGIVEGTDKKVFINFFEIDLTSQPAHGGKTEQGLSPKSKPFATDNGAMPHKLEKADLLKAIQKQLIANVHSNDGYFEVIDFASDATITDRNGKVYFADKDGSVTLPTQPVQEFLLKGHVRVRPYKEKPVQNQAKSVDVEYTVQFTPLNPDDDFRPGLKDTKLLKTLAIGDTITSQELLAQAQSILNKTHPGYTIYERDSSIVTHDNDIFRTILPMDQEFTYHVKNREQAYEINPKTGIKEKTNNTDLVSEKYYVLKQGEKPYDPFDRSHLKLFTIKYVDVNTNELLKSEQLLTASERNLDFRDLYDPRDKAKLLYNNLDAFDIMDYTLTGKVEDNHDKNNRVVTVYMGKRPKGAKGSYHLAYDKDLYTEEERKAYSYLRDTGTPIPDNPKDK
Briefly: viability-normalized secreted streptokinase activity reduction – plasminogen activation absorbance, OD405, dose response (AID 1914).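 Note: secreted streptokinase activity via plasminogen activation per viability signal from cell pellet.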 Type of assay: functional, Streptococcus pyogenes M1 GAS.

Assay [13] in a line: NIH3T3 cell viability loss – ATP luminescence, mouse fibroblasts, counter-screen, dose response (AID 2010).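 Note: cells exposed to compound for about 90 hours before reading.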 The format is functional, cell-based.

Usually AC50 stands for the concentration at which the activity in the assay is half-maximal.

T6 sequence (P11940 whole entry, the tested form may be a part): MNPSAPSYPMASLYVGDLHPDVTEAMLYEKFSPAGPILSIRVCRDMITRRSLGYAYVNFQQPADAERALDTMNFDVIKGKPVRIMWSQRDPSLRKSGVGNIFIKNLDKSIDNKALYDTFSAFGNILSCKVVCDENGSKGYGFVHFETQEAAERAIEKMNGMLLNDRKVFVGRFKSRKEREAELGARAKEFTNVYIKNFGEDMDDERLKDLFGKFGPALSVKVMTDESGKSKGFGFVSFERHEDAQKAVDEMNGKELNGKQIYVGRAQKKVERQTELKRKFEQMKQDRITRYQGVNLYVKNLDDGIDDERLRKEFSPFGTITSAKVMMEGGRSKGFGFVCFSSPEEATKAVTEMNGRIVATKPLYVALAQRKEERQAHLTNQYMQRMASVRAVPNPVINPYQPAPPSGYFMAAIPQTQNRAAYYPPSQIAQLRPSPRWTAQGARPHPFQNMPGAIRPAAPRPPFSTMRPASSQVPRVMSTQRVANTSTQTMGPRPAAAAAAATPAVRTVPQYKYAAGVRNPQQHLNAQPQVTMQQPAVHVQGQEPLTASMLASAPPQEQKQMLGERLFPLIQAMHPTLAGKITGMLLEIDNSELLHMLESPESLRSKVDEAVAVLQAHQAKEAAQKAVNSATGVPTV
Sequence of Cytochrome P450 2D6 (P10635 whole entry): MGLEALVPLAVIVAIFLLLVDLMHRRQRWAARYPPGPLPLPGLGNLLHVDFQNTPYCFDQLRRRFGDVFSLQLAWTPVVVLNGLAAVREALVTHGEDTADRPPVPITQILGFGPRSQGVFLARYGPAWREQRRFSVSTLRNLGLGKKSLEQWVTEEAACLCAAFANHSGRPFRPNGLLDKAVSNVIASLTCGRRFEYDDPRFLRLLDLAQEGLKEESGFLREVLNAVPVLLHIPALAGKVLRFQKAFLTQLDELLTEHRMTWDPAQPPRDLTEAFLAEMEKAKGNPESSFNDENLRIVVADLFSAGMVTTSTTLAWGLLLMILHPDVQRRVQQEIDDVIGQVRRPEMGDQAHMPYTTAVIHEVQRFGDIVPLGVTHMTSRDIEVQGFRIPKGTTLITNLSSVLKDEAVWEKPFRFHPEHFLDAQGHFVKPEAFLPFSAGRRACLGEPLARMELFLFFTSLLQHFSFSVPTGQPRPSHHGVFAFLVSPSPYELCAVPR

Take `O=C(CCc1ccccc1)NNC(=S)NC(=O)c1ccccc1`: the EC50 in assay [1] was 16.4 µM (active); in [2], > 150 µM (inactive); in assay [3], 1.01 µM (active); in [4] it was 19.2 µM (active); in the assay with Streptococcus, 5.07 µM (active); in [5], 1.27 µM (active). For the same molecule, the AC50 at Cytochrome P450 1A2 is 14.1 µM (inconclusive). Also, the IC50 at Leucine aminopeptidase is 41.3 µM (active).
For `CC(=O)c1ccc(N2CCN(C(=O)c3cccc(Oc4ccccc4)c3)CC2)cc1`, the IC50 in [6] was 12.3 µM (not active); in [8] it was 6.67 µM (active); in assay [9] it was 2.16 µM (active). Moreover, in assay [7], the EC50 is > 53 µM (inactive).
`CCCCN(c1ccc(C(=O)OC)cc1)S(=O)(=O)c1ccccc1`: the EC50 in assay [7] was > 53 µM (inactive). Also, the values for the IC50 in [8] and in [9] were > 20 µM (inactive) and < 0.368 µM (active), respectively.
For `CCCCc1c(O)n(-c2ccccc2OC)c(SCC(=O)Nc2cccc3ccccc23)nc1=O`, the EC50 in assay [1] was > 160 µM (inactive); in assay [2], > 160 µM (inconclusive); in [3], 2.03 µM (active); in assay [4] it was > 180 µM (inactive). Besides, the IC50 in assay [10] and in [11] was > 66 µM (inactive) in each case.
In the case of `COC(=O)C(NC(=O)c1ccc(F)cc1)(Nc1ncc(S(=O)(=O)c2ccc([N+](=O)[O-])cc2)s1)C(F)(F)F` (stereo not given), in [7], the EC50 is > 53 µM (inactive). In addition, the IC50 is 14.5 µM (active) in assay [8] and 16.3 µM (active) in assay [9]. In addition, the AC50 at Cytochrome P450 2D6 is 31.6 µM (inconclusive).
Consider `O=C(Nc1cc(S(=O)(=O)N2CCCCC2)ccc1N1CCCCC1)C1CC1`, for which the EC50 in [7] was > 53 µM (inactive). Further, the IC50 was > 20 µM (inactive) in assay [8] and < 0.368 µM (active) in assay [9].
The matching figures for `CCOC(=O)Nc1ccc(Oc2ccccc2)cc1`: > 53 µM (inactive), > 20 µM (inactive) and 15.2 µM (active).
Consider `C=CCn1c(N)nc2ccccc21`, for which the EC50 in [1] is > 160 µM (inactive); in assay [2], > 160 µM (inactive); in assay [3], 1.55 µM (active); in assay [4], > 180 µM (inactive).
As to `CCC(=O)NC(c1ccc(C)cc1)c1cc([N+](=O)[O-])c2cccnc2c1O` (stereo not given), the EC50 in [1] was > 150 µM (inactive); in assay [2], 21.8 µM (active); in assay [3] it was 0.212 µM (active); in assay [12], 1.34 µM (active); at Streptokinase A, 56.5 µM (active); in assay [4] it was > 180 µM (inactive). In addition, the EC50 in the assay on Streptococcus was 12.7 µM (active); in [5] it was 1.17 µM (active); in [13] it was 6.02 µM (active). Moreover, the AC50 in the assay with INS1 was 5.53 µM (active).
